According to patent publication US4927831A, “Spiro-isoquinoline-pyrrolidine tetrones and analogs thereof useful as aldose reductase inhibitors” (American Home Products, priority 1989, dated 1990):
Where “and” joins values, the source holds several entries; their conditions need not be identical. Identical values can stand only once. Like-named read-outs stand apart in the source and are kept apart here.

How the values were obtained:
aldose reductase = biological target: T1, aldose reductase (Bos taurus, UniProt P16116); assay: in vitro aldose reductase inhibition (modified Hayman and Kinoshita; enzyme from bovine lens); assay type: biochemical; details: read-out: % Inhibition IN VITRO; for inhibition at 0.1 µM: 10^-7 M
T1 construct: preparation of the enzyme from bovine lens; from tissue; host or cells: bovine lens
Experimental: Only two minor reagent changes were made: (a) The rinsing mixture was an aqueous 5% (w/v) trichloroacetic acid solution and (b) the stock solution was prepared by dissolving 25 mg of dulcitol in 100 ml of an aqueous trichloroacetic acid solution. [N.B.: For each experiment the average value found in the tissue from rats fed the glucose diet was subtracted from the individual values found in the corresponding tissue in galactose-fed rats to obtain the amount of polyol accumulated.] […] In the present case the procedure of Hayman and Kinoshita was modified in that the final chromatography step was omitted in the preparation of the enzyme from bovine lens. […] The figures under L and N represent the percentage decrease of dulcitol accumulation in the tissues of the lens and sciatic nerve, respectively, for treated rats as compared to untreated rats.

[1] = test system: dulcitol accumulation in the lens; assay: % lowering of dulcitol accumulation in lens (L) of galactosemic rats; assay type: in vivo, Sprague-Dawley; design: key: NS: statistically nonsignificant change; details: 4 days
Text: (§1) The aldose reductase inhibiting property of the compounds of this invention and the utilization of the compounds in preventing, diminishing and alleviating diabetic complications are demonstrable in experiments using galactosemic rats, see Dvornik et al., Science, 182, 1146 (1973). Such experiments are exemplified hereinbelow after the listing of the following general comments pertaining to these experiments:
(§2) (a) Four or more groups of six male rats, 50-70 g, Sprague-Dawley strain, were used. The first group, the control group, was fed a mixture of laboratory chow (rodent Laboratory Chow, Purina) and glucose at 20% (w/w %) concentration. An untreated galactosemic group was fed a similar diet in which galactose was substituted for glucose. The third group was fed a diet prepared by mixing a given amount of the test compound with the galactose containing diet. The concentration of galactose in the diet of the treated groups was the same as that for the untreated galactosemic group.
(§3) (b) After four days, the animals were killed by euthanization. Both the lens and sciatic nerve were removed, weighed and stored frozen for polyol determination.
(§4) (c) The polyol determination was performed by a modification of the procedure of M. Kraml and L. Cosyns, Clin. Biochem., 2,373 (1969). Only two minor reagent changes were made: (a) The rinsing mixture was an aqueous 5% (w/v) trichloroacetic acid solution and (b) the stock solution was prepared by dissolving 25 mg of dulcitol in 100 ml of an aqueous trichloroacetic acid solution. [N.B.: For each experiment the average value found in the tissue from rats fed the glucose diet was subtracted from the individual values found in the corresponding tissue in galactose-fed rats to obtain the amount of polyol accumulated.] The aldose reductase inhibiting effects of the compounds of formula (I) were also tested by employing an in vitro testing procedure similar to that described by S. Hayman and J.H. Kinoshita, J. Biol. Chem., 240,877 (1965). In the present case the procedure of Hayman and Kinoshita was modified in that the final chromatography step was omitted in the preparation of the enzyme from bovine lens.
(§5) The figures under L and N represent the percentage decrease of dulcitol accumulation in the tissues of the lens and sciatic nerve, respectively, for treated rats as compared to untreated rats.

[2] = test system: dulcitol accumulation in the sciatic nerve; assay: % lowering of dulcitol accumulation in sciatic nerve (N) of galactosemic rats; assay type: in vivo, Sprague-Dawley; design: key: NS: statistically nonsignificant change; details: 4 days
Text: as §1, §2, §3, §4, §5

inhibition at 1 µM (aldose reductase; 10^-6 M)	Structure (SMILES)	inhibition at 0.04 µM (aldose reductase; 4 × 10^-8 M)	inhibition at 10 µM (aldose reductase; 10^-5 M)	inhibition at 0.1 µM (aldose reductase)	inhibition at 1 µM (aldose reductase)	inhibition at 10 µM (aldose reductase)	% Lowering Dulcitol Accumulation IN VIVO, L (lens) ([1]; 0.5 mg/kg in diet)	% Lowering Dulcitol Accumulation IN VIVO, N (sciatic nerve) ([2]; 0.5 mg/kg in diet)	further results
92%	O=C1CC2(C(=O)N1)C(=O)N(Cc1ccc(Br)cc1F)C(=O)c1ccc(Cl)cc12 (stereo not drawn) [[2-[(4-Bromo-2-fluorophenyl)methyl]-6-chloro]spiro[isoquinoline-4(1H),3'-pyrrolidine]-1,2',3,5'(2H)-tetrone]	8%	97%	55%	–	–	–	–	% Lowering Dulcitol Accumulation IN VIVO, L (lens) ([1]; 0.6 mg/kg in diet): 9%; % Lowering Dulcitol Accumulation IN VIVO, N (sciatic nerve) ([2]; 0.6 mg/kg in diet): 29%
–	O=C1CC2(C(=O)N1)C(=O)N(Cc1ccc(Br)cc1F)C(=O)c1ccc(F)cc12 (stereo not drawn) [[2-[(4-Bromo-2-fluorophenyl)methyl]-6-fluoro]spiro[isoquinoline-4(1H),3'-pyrrolidine]-1,2',3,5'(2H)-tetrone]	–	–	–	96%	97%	NS	82.9% and 92.1%	inhibition at 0.04 µM (aldose reductase): 38%; % Lowering Dulcitol Accumulation IN VIVO, L (lens) ([1]; 0.3 mg/kg in diet): NS; % Lowering Dulcitol Accumulation IN VIVO, L (lens) ([1]; 0.9 mg/kg in diet): NS; % Lowering Dulcitol Accumulation IN VIVO, N (sciatic nerve) ([2]; 0.3 mg/kg in diet): 39.7%; % Lowering Dulcitol Accumulation IN VIVO, N (sciatic nerve) ([2]; 0.9 mg/kg in diet): 93.5%
–	O=C1CC2(C(=O)N1)C(=O)N(Cc1ccc(Br)cc1F)C(=O)c1cc(F)ccc12 (stereo not drawn) [[2-[(4-Bromo-2-fluorophenyl)methyl]-7-fluoro]spiro[isoquinoline-4(1H),3'-pyrrolidine]-1,2'3,5'(2H)-tetrone]	42%	95%	92%	93%	–	NS	NS	% Lowering Dulcitol Accumulation IN VIVO, L (lens) ([1]; 1.0 mg/kg in diet): NS; % Lowering Dulcitol Accumulation IN VIVO, N (sciatic nerve) ([2]; 1.0 mg/kg in diet): 50.2%
–	COc1ccc2c(c1)C(=O)N(Cc1ccc(Br)cc1F)C(=O)C21CC(=O)NC1=O (stereo not drawn) [[2-[(4-Bromo-2-fluorophenyl)methyl]-7-methoxy]spiro[isoquinoline-4(1H),3'-pyrrolidine]-1,2',3,5'(2H)-tetrone]	72%	97%	90%	96%	–	–	–	% Lowering Dulcitol Accumulation IN VIVO, L (lens) ([1]; 25.7 mg/kg in diet): 45.3%; % Lowering Dulcitol Accumulation IN VIVO, N (sciatic nerve) ([2]; 25.7 mg/kg in diet): 88.1%
–	O=C1CC2(C(=O)N1)C(=O)N(Cc1ccc(Br)cc1F)C(=O)c1c(F)cccc12 (stereo not drawn) [[2-[(4-Bromo-2-fluorophenyl)methyl]-8-fluoro]spiro[isoquinoline-4(1H),3'-pyrrolidine]-1,2',3,5'(2H)-tetrone]	43%	–	92%	94%	96%	NS	50.6%	% Lowering Dulcitol Accumulation IN VIVO, L (lens) ([1]; 1.0 mg/kg in diet): 16.3%; % Lowering Dulcitol Accumulation IN VIVO, N (sciatic nerve) ([2]; 1.0 mg/kg in diet): 57.6%
97%	COc1cc2c(cc1Br)C1(CC(=O)NC1=O)C(=O)N(Cc1ccc(Br)cc1F)C2=O (stereo not drawn) [[6-Bromo-2-[(4-bromo-2-fluorophenyl)methyl]-7-methoxy]spiro[isoquinoline-4(1H),3'-pyrrolidine]-1,2',3,5'(2H)-tetrone]	70%	98%	88%	–	–	NS	55.2%	% Lowering Dulcitol Accumulation IN VIVO, L (lens) ([1]; 26.4 mg/kg in diet): 48.8%; % Lowering Dulcitol Accumulation IN VIVO, N (sciatic nerve) ([2]; 26.4 mg/kg in diet): 89.5%

Structure (SMILES)	inhibition at 1 µM (aldose reductase; 10^-6 M)	inhibition at 0.04 µM (aldose reductase; 4 × 10^-8 M)	inhibition at 10 µM (aldose reductase; 10^-5 M)	inhibition at 0.1 µM (aldose reductase)	inhibition at 1 µM (aldose reductase)	inhibition at 10 µM (aldose reductase)	% Lowering Dulcitol Accumulation IN VIVO, L (lens) ([1]; 0.5 mg/kg in diet)	% Lowering Dulcitol Accumulation IN VIVO, N (sciatic nerve) ([2]; 0.5 mg/kg in diet)	further results
O=C1CC2(C(=O)N1)C(=O)N(Cc1ccc(Br)cc1F)C(=O)c1cc(Cl)ccc12 (stereo not drawn) [[2-[(4-Bromo-2-fluorophenyl)methyl]-7-chloro]spiro[isoquinoline-4(1H),3'-pyrrolidine]-1,2',3,5'(2H)-tetrone]	92%	25%	–	42%	–	96%	–	–	% Lowering Dulcitol Accumulation IN VIVO, L (lens) ([1]; 0.6 mg/kg in diet): NS; % Lowering Dulcitol Accumulation IN VIVO, N (sciatic nerve) ([2]; 0.6 mg/kg in diet): 63%
